From PubChem BioAssay AID1963830 (Molecular Pharmacology Branch, DTP, NCI, 2024)

Test system: 922993-354-T-J3-PDC complex spheroid viability
Experiment: Anticancer human tumor 922993-354-T-J3-PDC patient-derived endometrial carcinoma cell line growth inhibition [POLQ]
Conditions: for IC50: curve of first compound; for viability, T/C: stronger effect = lower value
In short: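 Growth inhibition in 3D: complex spheroids (tumor PDC, HUVEC, MSC) treated with POLQ inhibitor combinations; where Cmax unknown, highest tested concentration 10 microM, except SN-38 at 1 microM.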

[1] = second compound 0.0316 µM, first compound 0.0316 µM
[2] = second compound 0.0316 µM, first compound 0.1 µM
[3] = second compound 0.0316 µM, first compound 0.316 µM
[4] = second compound 0.0316 µM, first compound 1 µM
[5] = second compound 0.0316 µM, first compound 3.16 µM
[6] = second compound 0.0316 µM, first compound 10 µM
[7] = second compound 0.1 µM, first compound 0.0316 µM
[8] = second compound 0.1 µM, first compound 0.1 µM
[9] = second compound 0.1 µM, first compound 0.316 µM
[10] = second compound 0.1 µM, first compound 1 µM
[11] = second compound 0.1 µM, first compound 3.16 µM
[12] = second compound 0.1 µM, first compound 10 µM
[13] = second compound 0.316 µM, first compound 0.0316 µM
[14] = second compound 0.316 µM, first compound 0.1 µM
[15] = second compound 0.316 µM, first compound 0.316 µM
[16] = second compound 0.316 µM, first compound 1 µM
[17] = second compound 0.316 µM, first compound 3.16 µM
[18] = second compound 0.316 µM, first compound 10 µM
[19] = second compound 1 µM, first compound 0.0316 µM
[20] = second compound 1 µM, first compound 0.1 µM
[21] = second compound 1 µM, first compound 0.316 µM
[22] = second compound 1 µM, first compound 1 µM
[23] = second compound 1 µM, first compound 3.16 µM
[24] = second compound 1 µM, first compound 10 µM
[25] = second compound 3.16 µM, first compound 0.0316 µM
[26] = second compound 3.16 µM, first compound 0.1 µM
[27] = second compound 3.16 µM, first compound 0.316 µM
[28] = second compound 3.16 µM, first compound 1 µM
[29] = second compound 3.16 µM, first compound 3.16 µM
[30] = second compound 3.16 µM, first compound 10 µM
[31] = second compound 10 µM, first compound 0.0316 µM
[32] = second compound 10 µM, first compound 0.1 µM
[33] = second compound 10 µM, first compound 0.316 µM
[34] = second compound 10 µM, first compound 1 µM
[35] = second compound 10 µM, first compound 3.16 µM
[36] = second compound 10 µM, first compound 10 µM
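Further: spheroids exposed to the agents for one week.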
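Wherever viability, T/C is given: 100% = DMSO vehicle control wells.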

Nc1ccn(C2OC(CO)C(O)C2(F)F)c(=O)n1 (centres undefined) + Cc1cccc(N(C)C(=O)C2C(O)CCN2c2nc(C)cc(C(F)(F)F)c2C#N)c1
IC50 (second compound 0.0316 µM): < 0.0316 µM | IC50 (second compound 0.1 µM): < 0.0316 µM | IC50 (second compound 0.316 µM): < 0.0316 µM | IC50 (second compound 1 µM): < 0.0316 µM | IC50 (second compound 3.16 µM): < 0.0316 µM | IC50 (second compound 10 µM): < 0.0316 µM | viability, T/C [1]: 11.1% | viability, T/C [2]: 10.3% | viability, T/C [3]: 9.57% | viability, T/C [4]: 11.8% | viability, T/C [5]: 9.18% | viability, T/C [6]: 9.18% | viability, T/C [7]: 14.8% | viability, T/C [8]: 10.9% | viability, T/C [9]: 11.3% | viability, T/C [10]: 10.7% | viability, T/C [11]: 10.7% | viability, T/C [12]: 11% | viability, T/C [13]: 11.9% | viability, T/C [14]: 11.5% | viability, T/C [15]: 11.9% | viability, T/C [16]: 9.92% | viability, T/C [17]: 8.14% | viability, T/C [18]: 9.97% | viability, T/C [19]: 12.6% | viability, T/C [20]: 9.47% | viability, T/C [21]: 8.22% | viability, T/C [22]: 8.9% | viability, T/C [23]: 7.29% | viability, T/C [24]: 10.3% | viability, T/C [25]: 11.3% | viability, T/C [26]: 10.2% | viability, T/C [27]: 10.6% | viability, T/C [28]: 7.56% | viability, T/C [29]: 9.43% | viability, T/C [30]: 10.6% | viability, T/C [31]: 7.43% | viability, T/C [32]: 8.87% | viability, T/C [33]: 7.1% | viability, T/C [34]: 6.45% | viability, T/C [35]: 8.61% | viability, T/C [36]: 8.92%

O=C(c1cc(Cc2n[nH]c(=O)c3ccccc23)ccc1F)N1CCN(C(=O)C2CC2)CC1 + Cc1cccc(N(C)C(=O)C2C(O)CCN2c2nc(C)cc(C(F)(F)F)c2C#N)c1
IC50 (second compound 0.0316 µM): > 10 µM | IC50 (second compound 0.1 µM): > 10 µM | IC50 (second compound 0.316 µM): > 10 µM | IC50 (second compound 1 µM): > 10 µM | IC50 (second compound 3.16 µM): > 10 µM | IC50 (second compound 10 µM): > 10 µM | viability, T/C [1]: 104% | viability, T/C [2]: 103% | viability, T/C [3]: 101% | viability, T/C [4]: 113% | viability, T/C [5]: 99.2% | viability, T/C [6]: 92.4% | viability, T/C [7]: 111% | viability, T/C [8]: 103% | viability, T/C [9]: 111% | viability, T/C [10]: 102% | viability, T/C [11]: 103% | viability, T/C [12]: 109% | viability, T/C [13]: 113% | viability, T/C [14]: 108% | viability, T/C [15]: 104% | viability, T/C [16]: 112% | viability, T/C [17]: 92.9% | viability, T/C [18]: 103% | viability, T/C [19]: 96.4% | viability, T/C [20]: 108% | viability, T/C [21]: 106% | viability, T/C [22]: 107% | viability, T/C [23]: 99.1% | viability, T/C [24]: 109% | viability, T/C [25]: 98.3% | viability, T/C [26]: 107% | viability, T/C [27]: 95.3% | viability, T/C [28]: 94.7% | viability, T/C [29]: 109% | viability, T/C [30]: 106% | viability, T/C [31]: 100% | viability, T/C [32]: 97.7% | viability, T/C [33]: 112% | viability, T/C [34]: 104% | viability, T/C [35]: 104% | viability, T/C [36]: 103%
